Assay results taken from patent US20080274061A1, “Method for Treating a Restless Limb Disorder” (priority 2007, published 2008).
Where a name gives a salt, the structure may show the parent alone. Read-outs that look alike come from different tables or passages of the source.

How the values were obtained:
[1] = buccal, nasal or rectal administration to rats as HCl salt, compared with oral dosing; cited from earlier work
[2] = test system: subjects with idiopathic RLS; assay: Clinical trial: subject-rated severity of RLS sensory symptoms during Suggested Immobilization Tests; type: in vivo, human; conditions: for maximum mean reduction from baseline in severity scores: single delivery, 0-10 scale; for onset of action after administration: doses of 124 μg and 247 μg, intranasal
Method: This example relates to a randomized, double-blind, placebo-controlled parallel-group proof-of-concept trial which assessed the efficacy, safety and tolerability of ascending doses of rotigotine nasal spray for the treatment of acute symptoms of RLS in subjects with idiopathic RLS. This was evaluated by subject rating of severity of symptoms (sensory symptoms) on a numeric symptoms severity scale and by the Periodic Limb Movement (PLM) index (motor symptoms) as measured by actigraphy following triggering of symptoms by immobilization. […] Subjects randomized to the “placebo group” received a single delivery of matching placebo nasal spray on each treatment day. […] It has been shown that immobilization results in worsening of both motor and sensory components of RLS symptoms. […] On each treatment day, the trial medication was administered 30 minutes after the start of the pre-dose SIT-0 or as soon as the subject's severity score reaches 5 on the numeric symptom severity scale, whichever is sooner. The last scoring prior to dosing is defined as the baseline value for each individual subject. • 1. […] PLM during Wakefulness Index (PLMWI) for each SIT and for specified time sections of each SIT (PLM during awake epochs/h, motor symptoms) was evaluated based on PLM measurements by means of actigraphy, recorded over the entire duration of the SIT period (pre dose and post dose SIT-0 to SIT-6, approximately 4.5 hours). Severity of symptoms in the legs was assessed by subject ratings using a numeric symptoms severity scale at the start of each pre-dose and post-dose SIT-0 to SIT-6 and every 5 minutes during each SIT. Scores on the scale range from 0 (‘no symptoms’) to 10 (‘very severe’).

[3] = test system: subjects with idiopathic RLS; assay: Clinical trial: PLM during Wakefulness Index (PLMWI) by actigraphy during SITs; type: in vivo, human; conditions: highest dose (247 μg) nasal spray
Method: This example relates to a randomized, double-blind, placebo-controlled parallel-group proof-of-concept trial which assessed the efficacy, safety and tolerability of ascending doses of rotigotine nasal spray for the treatment of acute symptoms of RLS in subjects with idiopathic RLS. This was evaluated by subject rating of severity of symptoms (sensory symptoms) on a numeric symptoms severity scale and by the Periodic Limb Movement (PLM) index (motor symptoms) as measured by actigraphy following triggering of symptoms by immobilization. […] Subjects randomized to the “placebo group” received a single delivery of matching placebo nasal spray on each treatment day. • 1. […] PLM during Wakefulness Index (PLMWI) for each SIT and for specified time sections of each SIT (PLM during awake epochs/h, motor symptoms) was evaluated based on PLM measurements by means of actigraphy, recorded over the entire duration of the SIT period (pre dose and post dose SIT-0 to SIT-6, approximately 4.5 hours). RLS is usually associated with involuntary PLM occurring in wakefulness (PMLW) and sleep (PMLS) in 80-85% of RLS patients. […] A central reader was used to standardize PLM evaluation of the actigraphy measurements performed during the SIT period. […]

[4] = effect of glycerol, in vitro permeation assays; cited from earlier work
[5] = orally (perorally) administered, first-pass metabolism in the liver; cited from earlier work
[6] = Maximum solubility in aqueous cyclodextrin solution at room temperature, isocratic HPLC; type: physicochemical; conditions: aqueous solution and aqueous solutions containing α- or β-cyclodextrin
Method: The concentration was determined by isocratic HPLC analysis. HPLC column LiChroCART 75×4 mm, Superspher 60 RP-select B 5 μm (Merck), column temperature: 30° C., mobile phase:water/acetonitrile/methanesulfonic acid (65/35/0.05 v/v/v), flow rate: 2 ml/min, injection volume: 50 μl, detection at 220 nm, retention time approx. 1.5 min. The concentration was determined by use of an external reference solution having known concentration.

[7] = Comparative storage test of aqueous rotigotine HCl solution with/without α-cyclodextrin; type: physicochemical; conditions: storage at 60° C. for 8 weeks, solution of 1.6 mg/ml with α-cyclodextrin

Compound | bioavailability (in words) [1] | maximum mean reduction from baseline in severity scores ([2]; 62 μg nasal spray) [points] | maximum mean reduction from baseline in severity scores ([2]; 124 μg nasal spray) [points] | maximum mean reduction from baseline in severity scores ([2]; 247 μg nasal spray) [points] | decrease in the mean severity scores ([2]; doses of 124 μg and 247 μg nasal spray, SIT-1 through SIT-6, 0-10 scale) | onset of action after administration [2] [min] | decrease from baseline in the PLMWI [3] | absorption through bovine nasal mucosa (in words) [4] | bioavailability (in words) [5] | solubility (in words) [6] | decrease in the rotigotine concentration [7] [mg/mL]
CCCN(CCc1cccs1)[C@H]1CCc2c(O)cccc2C1 [rotigotine, (−)-5,6,7,8-tetrahydro-6-[propyl[2-(2-thienyl)ethyl]amino]-1-naphthol] | improved bioavailability | −0.8 | −2.0 | −2.3 | approximately 2 points | 10 | approximately 10 points | enhance absorption | close to zero | – | –
CCCN(CCc1cccs1)[C@H]1CCc2c(O)cccc2C1 [Rotigotine base] | – | – | – | – | – | – | – | – | – | practically insoluble | –
CCCN(CCc1cccs1)[C@H]1CCc2c(O)cccc2C1 [Rotigotine HCl] | – | – | – | – | – | 10 | – | – | – | – | -0.07
